Data on four compounds can be found in paper PMC7115582 (European Journal of Medicinal Chemistry, 2018).

The subject of the experiment is lentiviral pseudoparticles carrying H1-HA and N1-NA (from A/PR/8/34). It is filed as cell-based, influenza A virus. The conditions noted are these: control compounds; MDCK cells; Fig. 3.
For `CC(C)c1ccccc1NCCN1CCCCC1.Cl` [Compound 80], the “inhibition of pseudoparticle entry, in words” value was “Strong and dose-dependent inhibition”. With `COC(=O)[C@@H]1NC(=O)[C@@H]2NC(=O)[C@H](NC(=O)[C@@H]3NC(=O)[C@H]4NC(=O)[C@H](NC(=O)[C@H](Nc5c(NCc6ccc(-c7ccccc7)cc6)c(=O)c5=O)c5ccc(O)c(c5)Oc5cc4cc(O)c5C)[C@H](O)c4ccc(cc4)Oc4cc3cc(c4O)Oc3ccc(cc3)[C@H]2O)c2ccc(O)c(c2)-c2c(O)cc(O)cc21` [SA-19] the entry was “Strong and dose-dependent inhibition”; with `CCc1ccccc1OCCN1CCCCCC1` [Compound 81], “Strong and dose-dependent inhibition”; with `CCN(CC)CCCC(C)Nc1ccnc2cc(Cl)ccc12` (stereo not shown) [chloroquine], “Strong and dose-dependent inhibition”.
